Reference: patent US9586942B2, “Aminotetraline and aminoindane derivatives, pharmaceutical compositions containing them, and their use in therapy” (AbbVie Deutschland GmbH & Co. KG, priority 2013, dated 2017)

How the values were obtained:
human GlyT1c transporter = human GlyT1c transporter (Homo sapiens (Human), UniProt P48067); assay: Radioligand binding assay using recombinant CHO cell membranes expressing human GlyT1; details: examples marked * tested as fumarate salts, read-out: radioligand binding Kiapp
Sequence of human GlyT1c transporter (P48067 whole entry): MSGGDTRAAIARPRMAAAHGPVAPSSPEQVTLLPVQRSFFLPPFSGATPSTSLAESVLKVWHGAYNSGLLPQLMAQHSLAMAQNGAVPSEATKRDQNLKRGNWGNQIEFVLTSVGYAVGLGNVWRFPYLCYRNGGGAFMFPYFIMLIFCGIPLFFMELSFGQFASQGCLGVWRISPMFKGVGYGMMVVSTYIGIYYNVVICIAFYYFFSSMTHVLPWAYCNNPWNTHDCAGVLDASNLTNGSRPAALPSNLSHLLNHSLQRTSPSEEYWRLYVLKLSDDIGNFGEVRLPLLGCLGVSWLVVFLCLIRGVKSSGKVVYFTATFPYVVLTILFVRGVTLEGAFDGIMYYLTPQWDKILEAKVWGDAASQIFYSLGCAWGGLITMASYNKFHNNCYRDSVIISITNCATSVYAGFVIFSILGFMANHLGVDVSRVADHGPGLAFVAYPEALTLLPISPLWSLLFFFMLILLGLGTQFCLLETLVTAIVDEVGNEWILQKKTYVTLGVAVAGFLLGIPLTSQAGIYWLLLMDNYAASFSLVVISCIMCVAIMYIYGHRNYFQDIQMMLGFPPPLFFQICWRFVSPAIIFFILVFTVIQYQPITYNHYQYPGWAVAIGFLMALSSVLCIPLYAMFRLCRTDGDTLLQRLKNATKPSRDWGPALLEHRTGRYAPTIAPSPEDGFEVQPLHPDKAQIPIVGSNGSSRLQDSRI
Method: 2. Radioligand binding assays using recombinant CHO cell membranes expressing human GlyT1:
Radioligand binding to human GlyT1c transporter-expressing membranes was determined as described in Mezler et al., Molecular Pharmacology 74:1705-1715, 2008.

[1] = Metabolic stability in human liver microsomes; type: in vitro ADME; details: human liver microsomes 0.25 mg protein/ml, 0.5 μM test substance, NADPH, 37° C., pH 7.4; scaled microsomal clearance; examples marked * tested as fumarate salts
Method: Metabolic stability was determined as follows:
0.5 μM test substance was preincubated together with human liver microsomes (0.25 mg of microsomal protein/ml) in 0.05 M potassium phosphate buffer of pH 7.4 in microtiter plates at 37° C. for 5 min. The reaction was started by adding NADPH (1.0 mM). After 0, 5, 10, 15, 20 and 30 min the reaction was stopped and cooled with twice the amount of quench solution consisting of acetonitrile/methanol 1:1, and containing 0.2 μM carbutamide. The samples were frozen until analyzed. The remaining concentration of undegraded test substance was determined by LC MSMS. The half-life (T1/2) was determined from the gradient of the signal of test substance/unit time plot, allowing to calculate the half-life of the test substance, assuming first order kinetics, from the decrease in the concentration of the compound with time. The microsomal clearance (mClint) was calculated as follows: mClint=((ln(2)/t 1/2)/Microsomal Protein Concentration (mg/ml))*1000, leading to the unit of uLmin/mg. The scaled clearance (mClin_scaled) was calculated as mCLint_scaled=m CLint*(Microsomal Yield (mg/kg BW))/1000000*60, leading to the units L/hr/kg. The Microsomal Yield is defined by the specifics of the used microsomes. Calculations were modified from references: Di, The Society for Biomolecular Screening, 2003, 453-462; Obach, DMD, 1999 vol 27. N 11, 1350-1359.

SMILES	Ki (human GlyT1c transporter)	human mCl [1]
O=S(=O)(NC1CN(c2ccc3c(c2)[C@@H](Cc2ccccc2)[C@@H](N2CCC2)CC3)C1)c1ccc2c(c1)OC(F)(F)O2 [Example 6, N-(1-((7S,8R)-7-(azetidin-1-yl)-8-benzyl-5,6,7,8-tetrahydronaphthalen-2-yl)azetidin-3-yl)-2,2-difluorobenzo[d][1,3]dioxole-5-sulfonamide]	≤ 10000 nM	≦500 L/h/Kg
CS(=O)(=O)NC1CN(c2ccc3c(c2)[C@@H](Cc2ccccc2)[C@@H](N2CCC2)CC3)C1 [Example 3, N-(1-((7S,8R)-7-(azetidin-1-yl)-8-benzyl-5,6,7,8-tetrahydronaphthalen-2-yl)azetidin-3-yl)methanesulfonamide]	≤ 1000 nM	≦5 L/h/Kg
CCS(=O)(=O)NC1CN(c2ccc3c(c2)[C@@H](Cc2ccccc2)[C@@H](N2CCC2)CC3)C1 [Example 4, N-(1-((7S,8R)-7-(azetidin-1-yl)-8-benzyl-5,6,7,8-tetrahydronaphthalen-2-yl)azetidin-3-yl)ethanesulfonamide]	≤ 100 nM	≦5 L/h/Kg
CCS(=O)(=O)NC1(C)CN(c2ccc3c(c2)[C@@H](Cc2ccccc2)[C@@H](N2CCC2)CC3)C1 [Example 8, N-(1-((7S,8R)-7-(azetidin-1-yl)-8-benzyl-5,6,7,8-tetrahydronaphthalen-2-yl)-3-methylazetidin-3-yl)ethanesulfonamide]	≤ 10000 nM	≦5 L/h/Kg
CCCS(=O)(=O)N[C@H]1CCN(c2ccc3c(c2)[C@@H](Cc2ccccc2)[C@@H](N2CCC2)CC3)C1=O [Example 14, N-((S)-1-((7S,8R)-7-(azetidin-1-yl)-8-benzyl-5,6,7,8-tetrahydronaphthalen-2-yl)-2-oxopyrrolidin-3-yl)propane-1-sulfonamide]	≤ 100 nM	≦5 L/h/Kg
Cn1cnc(S(=O)(=O)NC2(C)CN(c3ccc4c(c3)[C@@H](Cc3ccccc3)[C@@H](N3CCC3)CC4)C2)c1 [Example 7, N-(1-((7S,8R)-7-(azetidin-1-yl)-8-benzyl-5,6,7,8-tetrahydronaphthalen-2-yl)-3-methylazetidin-3-yl)-1-methyl-1H-imidazole-4-sulfonamide]	≤ 100 nM	≦5 L/h/Kg
Cn1cnc(S(=O)(=O)N[C@H]2C[C@H](c3ccc4c(c3)[C@@H](Cc3ccccc3)[C@@H](N3CCC3)CC4)C2)c1 [Example 12, N-((1R,3r)-3-((7S,8R)-7-(azetidin-1-yl)-8-benzyl-5,6,7,8-tetrahydronaphthalen-2-yl)cyclobutyl)-1-methyl-1H-imidazole-4-sulfonamide]	≤ 10 nM	≦5 L/h/Kg
CCCS(=O)(=O)NC1CN(c2ccc3c(c2)[C@@H](Cc2ccccc2)[C@@H](N2CCC2)CC3)C1 [Example 5, N-(1-((7S,8R)-7-(azetidin-1-yl)-8-benzyl-5,6,7,8-tetrahydronaphthalen-2-yl)azetidin-3-yl)propane-1-sulfonamide]	≤ 10 nM	≦5 L/h/Kg
Cn1cnc(S(=O)(=O)NC2CCN(c3ccc4c(c3)[C@@H](Cc3ccccc3)[C@@H](N3CCC3)CC4)CC2)c1 [Example 11, N-(1-((7S,8R)-7-(azetidin-1-yl)-8-benzyl-5,6,7,8-tetrahydronaphthalen-2-yl)piperidin-4-yl)-1-methyl-1H-imidazole-4-sulfonamide]	≤ 100 nM	≦5 L/h/Kg
Cn1cnc(S(=O)(=O)N[C@H]2C[C@@H](c3ccc4c(c3)[C@@H](Cc3ccccc3)[C@@H](N3CCC3)CC4)C2)c1 [Example 13, N-((1 S,3s)-3-((7S,8R)-7-(azetidin-1-yl)-8-benzyl-5,6,7,8-tetrahydronaphthalen-2-yl)cyclobutyl)-1-methyl-1H-imidazole-4-sulfonamide]	≤ 100 nM	≦5 L/h/Kg

Second part, the compound after the results:

Ki (human GlyT1c transporter)	human mCl [1]	SMILES
≤ 100 nM	≦5 L/h/Kg	Cn1cnc(S(=O)(=O)N[C@@H]2CCN(c3ccc4c(c3)[C@@H](Cc3ccccc3)[C@@H](N3CCC3)CC4)C2)c1 [Example 9, N-((R)-1-((7S,8R)-7-(azetidin-1-yl)-8-benzyl-5,6,7,8-tetrahydronaphthalen-2-yl)pyrrolidin-3-yl)-1-methyl-1H-imidazole-4-sulfonamide]
≤ 10 nM	≦5 L/h/Kg	CCCS(=O)(=O)NC1CN(c2ccc3c(c2)[C@@H](Cc2ccccc2)[C@@H](N2CC4CC4C2)CC3)C1 (stereo partly drawn) [Example 17, N-(1-((7S,8R)-8-benzyl-7-(3-azabicyclo[3.1.0]hexan-3-yl)-5,6,7,8-tetrahydronaphthalen-2-yl)azetidin-3-yl)propane-1-sulfonamide]
≤ 1000 nM	≦5 L/h/Kg	Cn1cnc(S(=O)(=O)N[C@H]2CCN(c3ccc4c(c3)[C@@H](Cc3ccccc3)[C@@H](N3CCC3)CC4)C2)c1 [Example 10, N-((S)-1-((7S,8R)-7-(azetidin-1-yl)-8-benzyl-5,6,7,8-tetrahydronaphthalen-2-yl)pyrrolidin-3-yl)-1-methyl-1H-imidazole-4-sulfonamide]
≤ 10 nM	≦5 L/h/Kg	Cn1cnc(S(=O)(=O)NC2CN(c3ccc4c(c3)[C@@H](Cc3ccccc3)[C@@H](N3CCC3)CC4)C2)c1 [Example 1, N-(1-((7S,8R)-7-(azetidin-1-yl)-8-benzyl-5,6,7,8-tetrahydronaphthalen-2-yl)azetidin-3-yl)-1-methyl-1H-imidazole-4-sulfonamide]
≤ 10 nM	≦5 L/h/Kg	Cn1cc(S(=O)(=O)NC2CN(c3ccc4c(c3)[C@@H](Cc3ccccc3)[C@@H](N3CC5CC5C3)CC4)C2)nn1 (stereo partly drawn) [Example 16, N-(1-((7S,8R)-8-benzyl-7-(3-azabicyclo[3.1.0]hexan-3-yl)-5,6,7,8-tetrahydronaphthalen-2-yl)azetidin-3-yl)-1-methyl-1H-1,2,3-triazole-4-sulfonamide]
≤ 100 nM	≦5 L/h/Kg	Cn1cnc(S(=O)(=O)NC2CN(c3ccc4c(c3)[C@@H](Cc3ccccc3)[C@@H](N3CC5CC5C3)CC4)C2)c1 (stereo partly drawn) [Example 15, N-(1-((7S,8R)-8-benzyl-7-(3-azabicyclo[3.1.0]hexan-3-yl)-5,6,7,8-tetrahydronaphthalen-2-yl)azetidin-3-yl)-1-methyl-1H-imidazole-4-sulfonamide]
